According to paper PMC8071358, “Targeting of the Essential acpP, ftsZ, and rne Genes in Carbapenem-Resistant Acinetobacter baumannii by Antisense PNA Precision Antibacterials” (Biomedicines, 2021):
{(KFF)3K-eg1} = H-(KFF)3K peptide (K lysine, F phenylalanine) with eg1 linker (8-amino-3,6-dioxaoctanoyl), on the PNA N terminus (5' end); {(kff)3k-eg1} = D-form (kff)3k peptide with eg1 linker (8-amino-3,6-dioxaoctanoyl), on the PNA N terminus; {(R-Ahx-R)4-Ahx} = H-(R-Ahx-R)4-Ahx peptide (R arginine, Ahx 6-aminohexanoyl), on the PNA N terminus; {NH2} = C-terminal amide

Legend:
Assay in all cases: BPP-PNA MIC, broth microdilution
Assay type in all cases: cell-based, Acinetobacter baumannii
[1] = tested on: A. baumannii ATCC 19606; details: 37 °C, 18 h
Experimental: (§1) MIC values were determined by broth microdilution according to standard protocols with a few modifications. An overnight bacterial cell culture was diluted to approximately 5 × 10^5 CFU/mL in non-cation-adjusted Muller Hinton Broth (MHB). Then, 180 µL bacterial solutions were dispensed into a low-bind 96-well plate (Thermo-Scientific, Roskilde, Denmark) along with 20 µL of BPP-PNA compound (BPP-PNA was serially diluted 2-fold from 16 to 0.5 µM in a 96-well plate). The plate was incubated in a Tecan Genios plate reader (GMI, Minnesota, Ramsey, USA) at 37 °C for 18 h with linear shaking, OD was measured every 20 min at 595 nm. […] The minimum bactericidal concentration (MBC) values were determined by plating 10 µL samples from the wells with no visible turbidity onto Mueller–Hinton agar plates. The MBC is determined the lowest concentration of BPP-PNA that reduces the viability of the initial bacterial inoculum by ≥99.9% (3-log reduction in CFU/mL). A minimum of two independent experiments (biological replicates) of the assay were conducted, and two technical replicates were used in each experiment for each bacterium, compound, and concentration.

[2] = tested on: CRAB strain AC44
Experimental: as §1

[3] = tested on: CRAB strain AC46
Experimental: as §1, with “An overnight bacterial cell culture was diluted to approximately 5 × 10^5 CFU/mL in non-cation-adjusted Muller Hinton Broth (MHB).” left out

[4] = tested on: CRAB strain AC2
Experimental: as §1

[5] = tested on: A. baumannii SSI1104
Experimental: as §1, with “An overnight bacterial cell culture was diluted to approximately 5 × 10^5 CFU/mL in non-cation-adjusted Muller Hinton Broth (MHB).” left out

[6] = Table 4 (anti-rne), brand of medium not given, non-cation-adjusted MHB by method
[7] = Sigma MHB medium without cation, 37 °C, 18 h
[8] = Sigma MHB medium without cation, ~5 × 10^5 CFU/mL, OD595 < 0.1
[9] = MHB without cation (Oxoid), 37 °C, 18 h

Substance	MIC, ATCC 19606 [1, 6]	MIC, AC44 [2, 6]	MIC, AC46 [3, 6]	MIC, ATCC 19606 ([1]; MHB without cation (Oxoid))	MIC, AC44 [2, 9]	MIC, AC2 [4, 6]	also measured
H-(KFF)3K-eg1-ACGTTTCATGG-NH2 (all peptide nucleic acid (PNA), 5' {(KFF)3K-eg1}, 3' {NH2}) [PNA 5637, anti-rne peptide-PNA conjugate, match, −2 to +9]	1 µM	1 µM	1 µM	–	–	–	–
H-(kff)3k -eg1-TGACTTGTCAC-NH2 (all peptide nucleic acid (PNA), 5' {(kff)3k-eg1}, 3' {NH2}) [PNA 5824, anti-acpP PNA with D-form peptide, mismatch]	–	–	–	–	–	–	MIC, AC2 [4, 7]: 8 µM; MIC, ATCC 19606 [1, 8]: 8 µM; MIC, AC44 [2, 7]: 4 µM; MIC, AC46 [3, 7]: 4 µM; MIC, SSI 1104 [5, 7]: 8 µM
H-(KFF)3K-eg1-ATGAGGCCATG-NH2 (all peptide nucleic acid (PNA), 5' {(KFF)3K-eg1}, 3' {NH2}) [PNA 5657, anti-ftsZ peptide-PNA conjugate, match, −1 to +10]	–	–	–	>16 µM	16 µM	–	–
H-(R-Ahx-R)4-Ahx-GAGTCCAGGAC-NH2 (all peptide nucleic acid (PNA), 5' {(R-Ahx-R)4-Ahx}, 3' {NH2}) [PNA 5616, anti-ftsZ (R-Ahx-R)4-Ahx-PNA, mismatch]	–	–	–	>16 µM	>16 µM	–	–
H-(KFF)3K-eg1-ACGATTCTTGG-NH2 (all peptide nucleic acid (PNA), 5' {(KFF)3K-eg1}, 3' {NH2}) [PNA 5638, anti-rne mismatch control of 5637]	2 µM	2 µM	1 µM	–	–	–	–
H-(KFF)3K-eg1-GGCCATGACCT-NH2 (N-terminal (KFF)3K-eg1 peptide, C-terminal amide, backbone not given here, further chemistry not given here) [PNA 5658, anti-ftsZ peptide-PNA conjugate, match, −5 to +6]	–	–	–	4 µM	8 µM	–	MIC, SSI 1104 [5, 9]: 8 µM
H-(kff)3k-eg1-TGATTTGCCAC-NH2 (all peptide nucleic acid (PNA), 5' {(kff)3k-eg1}, 3' {NH2}) [PNA 5823, anti-acpP PNA with D-form peptide, match]	–	–	–	–	–	–	MIC, AC2 [4, 7]: 4 µM; MIC, ATCC 19606 [1, 8]: 4 µM; MIC, AC44 [2, 7]: 4 µM; MIC, AC46 [3, 7]: 4 µM; MIC, SSI 1104 [5, 7]: 4 µM
H-(KFF)3K-eg1-GTTTCATGGGT-NH2 (all peptide nucleic acid (PNA), 5' {(KFF)3K-eg1}, 3' {NH2}) [PNA 5655, anti-rne peptide-PNA conjugate, match, −4 to +7]	4 µM	8 µM	–	–	–	8 µM	–
H-(KFF)3K-eg1- TTTGATGTGTG -NH2 (all peptide nucleic acid (PNA), 5' {(KFF)3K-eg1}, 3' {NH2}) [PNA 5822, anti-rne mismatch control of 5656]	8 µM	8 µM	8 µM	–	–	8 µM	MIC, SSI 1104 [5, 6]: 8 µM
H-(KFF)3K-eg1-ATCCGTTTAAT-NH2 (all peptide nucleic acid (PNA), 5' {(KFF)3K-eg1}, 3' {NH2}) [PNA 5821, anti-rne mismatch control of 5654]	4 µM	1 µM	2 µM	–	–	2 µM	MIC, SSI 1104 [5, 6]: 2 µM
